Measurements published in publication PMC9945863, “Pyridine based dual binding site aromatase (CYP19A1) inhibitors” (RSC Medicinal Chemistry, 2023).
Where two headings read alike, the source gives them in different places. One block for each compound: values may come before it.

Experiments:
CYP1A2 [1] = conditions: cited from earlier work
CYP2C9 [2] = conditions: cited from earlier work
CYP3A4 [3] = conditions: cited from earlier work
CYP2D6 = CYP2D6 (Homo sapiens, UniProt P10635); assay: CYP panel inhibition, human liver microsomal assay (Cyprotex); conditions: read-out: CYP2D6 IC50; human liver microsomes, isoform specific probe substrate
Sequence of CYP2D6 (P10635 whole entry, canonical isoform): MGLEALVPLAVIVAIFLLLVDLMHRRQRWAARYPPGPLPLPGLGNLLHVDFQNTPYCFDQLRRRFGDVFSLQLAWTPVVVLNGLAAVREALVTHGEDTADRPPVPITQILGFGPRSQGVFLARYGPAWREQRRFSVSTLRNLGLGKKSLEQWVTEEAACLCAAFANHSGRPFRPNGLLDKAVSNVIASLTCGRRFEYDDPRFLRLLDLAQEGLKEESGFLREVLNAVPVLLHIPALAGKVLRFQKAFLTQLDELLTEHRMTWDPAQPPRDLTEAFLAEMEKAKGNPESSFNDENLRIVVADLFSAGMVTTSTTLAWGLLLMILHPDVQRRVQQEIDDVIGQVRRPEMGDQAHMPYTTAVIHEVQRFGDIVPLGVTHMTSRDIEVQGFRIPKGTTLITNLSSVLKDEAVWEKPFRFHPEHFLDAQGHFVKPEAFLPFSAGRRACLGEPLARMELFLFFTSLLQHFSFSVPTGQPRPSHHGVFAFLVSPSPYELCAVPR

CYP3A4 [4] = target: T1, CYP3A4 (Homo sapiens, UniProt P08684); assay: as above; type: in vitro ADME; conditions: human liver microsomes, isoform specific probe substrate
T1 construct: using a human liver microsomal assay with a CYP isoform specific probe substrate; tissue Cyprotex Discovery Limited; host or cells: human liver microsomes
T1 sequence (P08684 whole entry, canonical isoform): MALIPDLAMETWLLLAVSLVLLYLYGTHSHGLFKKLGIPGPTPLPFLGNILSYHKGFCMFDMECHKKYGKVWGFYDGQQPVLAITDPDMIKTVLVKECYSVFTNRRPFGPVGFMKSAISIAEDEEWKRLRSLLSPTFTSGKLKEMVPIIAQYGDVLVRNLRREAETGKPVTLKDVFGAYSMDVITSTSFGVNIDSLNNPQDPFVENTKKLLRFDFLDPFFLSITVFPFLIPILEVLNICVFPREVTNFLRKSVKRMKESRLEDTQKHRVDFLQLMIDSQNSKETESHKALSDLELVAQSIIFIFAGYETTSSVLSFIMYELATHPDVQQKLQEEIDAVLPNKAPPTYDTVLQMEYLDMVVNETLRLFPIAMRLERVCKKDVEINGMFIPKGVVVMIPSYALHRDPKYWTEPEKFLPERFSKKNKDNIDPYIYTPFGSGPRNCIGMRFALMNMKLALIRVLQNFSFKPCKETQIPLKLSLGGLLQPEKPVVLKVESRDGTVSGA

[5] = target: T2, CYP3A4 (relative to CYP19A1) (Homo sapiens, UniProt P08684); assay: as above; type: in vitro ADME; conditions: human, human liver microsomes; ratio of CYP IC50 to CYP19A1 IC50; read-out: Selectivity CYP19A1 compared with CYP3A4
T2 construct: using a human liver microsomal assay with a CYP isoform specific probe substrate; tissue Cyprotex Discovery Limited; host or cells: human liver microsomes
T2 sequence (P08684 whole entry, canonical isoform): as above

Aromatase (CYP19A1) = target: T3, Aromatase (CYP19A1) (Homo sapiens, UniProt P11511); assay: Aromatase activity, modified tritiated water assay in JEG-3 cells; type: cell-based
T3 construct: placental choriocarcinoma JEG-3 cells, known to have high aromatase activity; host or cells: JEG-3
T3 sequence (P11511 1-503): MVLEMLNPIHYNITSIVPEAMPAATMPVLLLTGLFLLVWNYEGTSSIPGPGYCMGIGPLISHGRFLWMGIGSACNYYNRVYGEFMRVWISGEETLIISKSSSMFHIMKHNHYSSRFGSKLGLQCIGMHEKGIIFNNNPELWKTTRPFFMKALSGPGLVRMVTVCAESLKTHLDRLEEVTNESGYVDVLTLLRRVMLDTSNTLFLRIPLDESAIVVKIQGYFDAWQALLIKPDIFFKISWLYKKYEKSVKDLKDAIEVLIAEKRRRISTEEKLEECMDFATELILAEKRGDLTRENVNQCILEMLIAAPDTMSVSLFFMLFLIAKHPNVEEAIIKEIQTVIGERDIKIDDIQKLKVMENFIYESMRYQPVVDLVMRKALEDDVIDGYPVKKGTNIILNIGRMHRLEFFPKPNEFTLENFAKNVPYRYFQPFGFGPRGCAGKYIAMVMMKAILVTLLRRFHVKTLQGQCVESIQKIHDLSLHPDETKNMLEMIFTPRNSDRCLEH
Method: Briefly, placental choriocarcinoma JEG-3 cells, known to have high aromatase activity, were grown to approximately 80% confluence in six-well culture plates. Once established, cells were treated with androst-4-ene-3,17-dione[1β-^3H] as aromatase substrate. Aromatase activity was measured in the absence and presence of inhibitors (Fig. 3).
Aromatase activity results were determined as a concentration of product formed per mg of protein per hour.
Aromatase activity was assayed using a modified tritiated water assay as previously reported.[12] JEG-3 cells were grown in 1 mL EMEM to approximately 80% confluence in six-well cell culture plates. Androst-4-ene-3,17-dione[1β-^3H] was dissolved in serum-free cell culture medium and added into each well. Aromatase activity was measured in the absence and presence of inhibitor (0.001–10 nM). After a 1 h incubation at 37 °C followed by a 5 min incubation on ice, 500 μL of culture medium was taken from each well. Medium was vortexed with 2% dextran-treated charcoal (Sigma-Aldrich) in PBS and centrifuged at 4000 rpm. The supernatant containing the product, [^3H] H2O, was quantified by scintillation counting. Cell protein concentrations were determined using Pierce BCA assay kit (Thermo Fisher Scientific). Aromatase activity results were determined as a concentration of product formed per mg of protein per hour (pmol mg^−1 h^−1).

CYP1A2 [6] = target: T4, CYP1A2 (Homo sapiens, UniProt P05177); assay: CYP panel inhibition, human liver microsomal assay (Cyprotex); type: in vitro ADME; conditions: human liver microsomes, isoform specific probe substrate
T4 construct: using a human liver microsomal assay with a CYP isoform specific probe substrate; tissue Cyprotex Discovery Limited; host or cells: human liver microsomes
T4 sequence (P05177 1-516): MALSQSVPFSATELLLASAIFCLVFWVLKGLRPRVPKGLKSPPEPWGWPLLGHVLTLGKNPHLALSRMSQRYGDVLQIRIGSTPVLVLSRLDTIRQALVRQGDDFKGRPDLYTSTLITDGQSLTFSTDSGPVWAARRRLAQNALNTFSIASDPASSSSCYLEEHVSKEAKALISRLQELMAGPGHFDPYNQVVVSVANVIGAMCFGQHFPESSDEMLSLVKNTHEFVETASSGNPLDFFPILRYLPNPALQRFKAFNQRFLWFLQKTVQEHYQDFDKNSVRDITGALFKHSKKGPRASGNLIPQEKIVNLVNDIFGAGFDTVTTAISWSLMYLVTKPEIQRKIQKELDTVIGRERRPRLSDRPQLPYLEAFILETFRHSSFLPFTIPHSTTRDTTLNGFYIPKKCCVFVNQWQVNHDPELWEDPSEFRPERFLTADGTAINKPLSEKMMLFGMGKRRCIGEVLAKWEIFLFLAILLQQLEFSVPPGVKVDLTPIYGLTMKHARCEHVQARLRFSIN

[7] = target: T5, CYP1A2 (relative to CYP19A1) (Homo sapiens, UniProt P05177); assay: as above; type: in vitro ADME; conditions: human, human liver microsomes; ratio of CYP IC50 to CYP19A1 IC50; read-out: Selectivity CYP19A1 compared with CYP1A2
T5 construct: using a human liver microsomal assay with a CYP isoform specific probe substrate; tissue Cyprotex Discovery Limited; host or cells: human liver microsomes
T5 sequence (P05177 1-516): T4 sequence (P05177 1-516)

CYP2C9 [8] = target: T6, CYP2C9 (Homo sapiens, UniProt P11712); assay: as above; type: in vitro ADME; conditions: human liver microsomes, isoform specific probe substrate
T6 construct: tissue Cyprotex Discovery Limited; host or cells: human liver microsomes
T6 sequence (P11712 whole entry, canonical isoform): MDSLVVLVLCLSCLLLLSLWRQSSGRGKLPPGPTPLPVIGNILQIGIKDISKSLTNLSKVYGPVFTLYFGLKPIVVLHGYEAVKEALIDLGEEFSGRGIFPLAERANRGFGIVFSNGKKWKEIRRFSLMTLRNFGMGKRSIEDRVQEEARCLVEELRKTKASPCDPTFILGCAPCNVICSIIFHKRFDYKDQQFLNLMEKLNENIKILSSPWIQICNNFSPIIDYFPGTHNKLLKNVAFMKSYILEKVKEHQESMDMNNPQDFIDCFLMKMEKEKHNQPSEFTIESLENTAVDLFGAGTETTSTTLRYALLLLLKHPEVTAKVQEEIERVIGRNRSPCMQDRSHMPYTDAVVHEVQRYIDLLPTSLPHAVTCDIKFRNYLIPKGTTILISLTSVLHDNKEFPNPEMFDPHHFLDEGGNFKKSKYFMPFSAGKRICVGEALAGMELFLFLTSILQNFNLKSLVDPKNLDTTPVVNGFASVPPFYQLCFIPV

[9] = target: T7, CYP2C9 (relative to CYP19A1) (Homo sapiens, UniProt P11712); assay: as above; type: in vitro ADME; conditions: human, human liver microsomes; ratio of CYP IC50 to CYP19A1 IC50; read-out: Selectivity CYP19A1 compared with CYP2C9
T7 construct: using a human liver microsomal assay with a CYP isoform specific probe substrate; tissue Cyprotex Discovery Limited; host or cells: human liver microsomes
T7 sequence (P11712 whole entry, canonical isoform): as above

[10] = target: CYP2D6 (relative to CYP19A1) (Homo sapiens, UniProt P10635); assay: in vitro; conditions: Selectivity CYP19A1 compared with CYP2D6, ratio of CYP IC50 to CYP19A1 IC50
Sequence of CYP2D6 (relative to CYP19A1) (P10635 whole entry): as the sequence (P10635 whole entry, canonical isoform) above

[11] = target: T8, CYP2C19 (relative to CYP19A1) (Homo sapiens, UniProt P33261); assay: CYP panel inhibition, human liver microsomal assay (Cyprotex); type: in vitro ADME; conditions: human, human liver microsomes; ratio of CYP IC50 to CYP19A1 IC50; read-out: Selectivity CYP19A1 compared with CYP2C19
T8 construct: using a human liver microsomal assay with a CYP isoform specific probe substrate; tissue Cyprotex Discovery Limited; host or cells: human liver microsomes
T8 sequence (P33261 whole entry, canonical isoform): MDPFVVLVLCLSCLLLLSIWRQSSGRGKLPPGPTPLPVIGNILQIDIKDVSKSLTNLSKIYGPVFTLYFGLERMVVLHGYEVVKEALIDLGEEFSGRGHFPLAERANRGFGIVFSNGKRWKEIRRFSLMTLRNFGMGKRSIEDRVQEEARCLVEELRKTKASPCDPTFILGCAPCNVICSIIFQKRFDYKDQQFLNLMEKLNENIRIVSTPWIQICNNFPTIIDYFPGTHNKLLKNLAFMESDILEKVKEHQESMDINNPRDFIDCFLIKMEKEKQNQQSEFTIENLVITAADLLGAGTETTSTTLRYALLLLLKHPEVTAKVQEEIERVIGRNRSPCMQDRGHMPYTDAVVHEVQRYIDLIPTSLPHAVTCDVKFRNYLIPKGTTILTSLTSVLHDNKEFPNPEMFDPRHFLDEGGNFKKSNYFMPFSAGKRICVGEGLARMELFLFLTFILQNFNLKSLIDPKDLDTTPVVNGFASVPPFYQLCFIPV

CYP2C19 [12] = target: T9, CYP2C19 (Homo sapiens, UniProt P33261); assay: as above; type: in vitro ADME; conditions: human liver microsomes, isoform specific probe substrate
T9 construct: using a human liver microsomal assay with a CYP isoform specific probe substrate; tissue Cyprotex Discovery Limited; host or cells: human liver microsomes
T9 sequence (P33261 whole entry, canonical isoform): as above

CYP2A6 = system: CYP2A6; parameters: method as in PMID 19198839, PMID 28977209; conditions: cited from earlier work
CYP2C19 [13] = system: CYP2C19; parameters: method as in PMID 19198839, PMID 28977209; conditions: cited from earlier work
[14] = heterocyclic nitrogen basicity; cited from earlier work
[15] = JEG-3 cells, 0.001–10 nM inhibitor, 1 h incubation, triplicates, read-out: CYP19A1 IC50

IC50 (Aromatase (CYP19A1); [15]): ~0.01 µM
SMILES: CC#CCOc1ccc2cc(C(O)(c3ccc(F)cc3)c3cccnc3)oc2c1 (stereo not drawn) [Compound 10a, (6-(But-2-yn-1-yloxy)benzofuran-2-yl)(4-fluorophenyl)(pyridin-3-yl)methanol]

IC50 (Aromatase (CYP19A1); [15]): 0.00105 µM
SMILES: CC#CCOc1ccc2cc(C(O)(c3ccc(Cl)cc3)c3cccnc3)oc2c1 (stereo not drawn) [Compound 10b, (6-(But-2-yn-1-yloxy)benzofuran-2-yl)(4-chlorophenyl)(pyridin-3-yl)methanol]

IC50 (Aromatase (CYP19A1); [15]): 0.0049 µM
SMILES: CCC#CCOc1ccc2cc(C(O)(c3ccc(Br)cc3)c3cccnc3)oc2c1 (stereo not drawn) [Compound 11c, (4-Bromophenyl)(6-(pent-2-yn-1-yloxy)benzofuran-2-yl)(pyridin-3-yl)methanol]

IC50 (Aromatase (CYP19A1); [15]): ~0.01 µM
SMILES: CCC#CCOc1ccc2cc(C(O)(c3ccc(F)cc3)c3cccnc3)oc2c1 (stereo not drawn) [Compound 11a, (4-Fluorophenyl)(6-(pent-2-yn-1-yloxy)benzofuran-2-yl)(pyridin-3-yl)methanol]

IC50 (Aromatase (CYP19A1); [15]): > 0.01 µM
SMILES: CC#CCOc1ccc2cc(C(O)(c3cccnc3)c3ccc(Cl)cc3Cl)oc2c1 (stereo not drawn) [Compound 10d, (6-(But-2-yn-1-yloxy)benzofuran-2-yl)(2,4-dichlorophenyl)(pyridin-3-yl)methanol]

IC50 (Aromatase (CYP19A1); [15]): 0.00092 µM
SMILES: CCC#CCOc1ccc2cc(C(O)(c3ccc(Cl)cc3)c3cccnc3)oc2c1 (stereo not drawn) [Compound 11b, (4-Chlorophenyl)(6-(pent-2-yn-1-yloxy)benzofuran-2-yl)(pyridin-3-yl)methanol]

IC50 (Aromatase (CYP19A1); [15]): > 0.01 µM
SMILES: CCC#CCOc1ccc2cc(C(O)(c3cccnc3)c3ccc(Cl)cc3Cl)oc2c1 (stereo not drawn) [Compound 11d, (2,4-Dichlorophenyl)(6-(pent-2-yn-1-yloxy)benzofuran-2-yl)(pyridin-3-yl)methanol]

Continued, compound first:

SMILES: CC(C)(C#N)c1cc(Cn2cncn2)cc(C(C)(C)C#N)c1 [anastrozole]
inhibition of CYP1A2 (CYP1A2 [1]): some inhibition
inhibition of CYP2C9 (CYP2C9 [2]): some inhibition
inhibition of CYP3A4 (CYP3A4 [3]): some inhibition

SMILES: CC#CCOc1ccc2cc(C(O)(c3ccc(Br)cc3)c3cccnc3)oc2c1 (stereo not drawn) [Compound 10c, (4-Bromophenyl)(6-(but-2-yn-1-yloxy)benzofuran-2-yl)(pyridin-3-yl)methanol]
IC50 (CYP2D6): > 25 µM
IC50 (CYP3A4 [4]): 3.38 ± 0.51 µM
selectivity ratio [5]: 4070
IC50 (Aromatase (CYP19A1); CYP19A1 value restated in μM in CYP profile table, read-out: IC50, CYP isoform 19A1): 0.00083 µM
IC50 (Aromatase (CYP19A1); [15]): 0.00083 µM
IC50 (CYP1A2 [6]): > 25 µM
selectivity ratio [7]: > 30000
IC50 (CYP2C9 [8]): 4.9 ± 0.94 µM
selectivity ratio [9]: 5900
selectivity ratio [10]: > 30000
selectivity ratio [11]: 892
IC50 (CYP2C19 [12]): 740 ± 160 nM

SMILES: COc1ccc2cc(C(O)(c3ccc(Br)cc3)c3cccnc3)oc2c1 (stereo not drawn) [Compound 4c, (4-Bromophenyl)(6-methoxybenzofuran-2-yl)(pyridin-3-yl)methanol]
IC50 (Aromatase (CYP19A1); [15]): 0.0004 µM

SMILES: COc1ccc2cc(C(O)(c3cccnc3)c3ccc(Cl)cc3Cl)oc2c1 (stereo not drawn) [Compound 4d, (2′,4′-Dichlorophenyl)(6-methoxybenzofuran-2-yl)(pyridin-3-yl)methanol]
IC50 (Aromatase (CYP19A1); [15]): 0.0019 µM

SMILES: N#Cc1ccc(C(c2ccc(C#N)cc2)n2cncn2)cc1 [Letrozole]
inhibition of CYP2A6 (CYP2A6): significant competitive inhibition
inhibition of CYP2C19 (CYP2C19 [13]): modest inhibition

SMILES: c1nnn[nH]1 [tetrazole]
pKa [14]: 4.8
